Assay results as given in patent US20040224935A1, “Topical antiandrogenic steroids” (Endorecherche, Inc., priority 2003, published 2004).
Like-named read-outs stand apart in the source and are kept apart here.

How the values were obtained:
[1] = tested on: rat seminal vesicle; test: Systemic antiandrogenic activity in immature male rats (castrated, DHT implant), seminal vesicle weight; conditions: po, 168 h, 0.5 mg/animal per os once daily 7 days, % efficacy relative to inhibition by flutamide, read-out: RAT (in vivo) (systemic) SV Inh % inh. (0.5 mg, per os)
Protocol: Column 6 represents the % of antiandrogenic efficacy on the rat seminal vesicle, relative to the percentage of inhibition by flutamide calculated by the formula:
(§1) % efficacy versus Flu=100×% inhib (compound)/% inhib (Flu).
(§2) Where the percentage of inhibition (% inhib) is calculated by the following formula:
(§3) % Inhib=100−[W (compound)−W (control)/W (DHT)−W (control)]×100.
W is the weight of the seminal vesicle.
(§4) C Systemic antiandrogenic activity (immature male rats)
(§5) 1. Animals Immature male rats (Crl:CD(SD)Br) 22 to 24-day old were obtained from Charles-River, Inc. (St-Constant, Quebec, Canada) and housed up to 5 per cage in plastic bins in a temperature (23±1° C.)—and light (12 h light/day, lights on at 7h15)—controlled environment. The rats were fed rodent chow and tap water ad libitum. The day following their arrival, the animals were orchidectornized (CX) under Isoflurane anesthesia via scrotal route and randomly assigned to groups of 5 animals. One silastic implant of dihydrotestosterone (DHT; length of implant: 1 cm) was inserted subcutaneously in the dorsal area of animals at the time of orchidectomy. One group of 5 animals was CX only as control (no DHT implant inserted).
(§6) 2. Treatments To evaluate the antiandrogenic activity, tested compounds were administered orally by gavage once daily at a dose of 0.5 mg/animal for 7 days (SD 1 to 7). Compounds were solubilized (when possible) in dimethylsulfoxide (DMS, 10% final concentration) and administered as suspension in 0.4% methylcellulose. Rats in CX control and CX+DHT control groups received the vehicle alone during the 7-day period. One group of animals received the antiandrogen Flutamide as reference. The animals were killed by cervical dislocation under isoflurane anesthesia on the 8th morning following castration. The ventral prostate and seminal vesicles were rapidly dissected and weighed.
(§7) 3. Calculations and Statistical Analysis The percentage of inhibition (% inhib) is calculated by the following formula:
(§8) This percentage is reported as % of efficacy, relatively to the percentage of inhibition of flutaride calculated by the formula: % efficacy versus Flu=100×% inhib (compound)/% inhib (Flu).
(§9) W is the weight of the prostate or the seminal vesicle.

[2] = tested on: rat prostate; test: Systemic antiandrogenic activity in immature male rats (castrated, DHT implant), prostate weight; conditions: po, 168 h, 0.5 mg/animal per os once daily 7 days, % efficacy relative to inhibition by flutamide, read-out: RAT (in vivo) (systemic) Prostate Inh. % inh. (0.5 mg, per os)
Protocol: Column 5 represents the % of antiandrogenic efficacy in rat prostate, relatively to the percentage of inhibition of flutamide calculated by the formula:
as §1, §2
% lnhib=100−[W (compound)−W (control)/W (DHT)−W (control)]×100.
W is the weight of the prostate.
as §4, §5, §6, §7, §3, §8, §9

[3] = tested on: Hamster's ear sebaceous glands; test: Topical antiandrogenic activity, histomorphometry of the ear sebaceous glands in the hamster; type: in vivo, Male Golden Syrian hamster; conditions: Mesocricetus auratus, 336 h, once daily, 14 days, sebaceous gland area, read-out: Antiandrogenic activity in Hamster's sebaceous glands Inh. Vs Cx (%); for inhibition in vivo at 0.001 mg: dose 1 μg applied topically on left ear of intact male hamster; for inhibition in vivo at 0.003 mg: dose 3 μg applied topically on left ear of intact male hamster; for inhibition in vivo at 0.01 mg: dose 10 μg applied topically on left ear of intact male hamster
Source text: Column 3 represents the dose of antiandrogenic compounds applied on the left ear of the intact male hamster.
Column 4 represents the relative inhibition in % of the area of the sebaceous gland of the left ear versus control hamster. Higher values approaching the effect of castration are preferable
The Antiandrogenic activity of antiandrogenic compounds has been measured using a Histomorphometry assay of the Ear Sebaceous Glands in the Hamster
1. Animals Male Golden Syrian, Hamster (SYR) of 110-120 g were obtained from Harlan Sprague Dawlay (Madison, USA) and housed up to 2 per cage in plastic cages in a temperature (22±3° C.) and light (12 h light/day, lights on at 7 h 15) in a controlled environment. The hamsters were fed with Certified Rodent Diet 5002 (pellet) and tap water ad libitum. The animals were acclimated for at least five days before the beginning of the study. Animals were randomly assigned to groups of eight hamsters. One group of hamsters was castrated under isoflurane-induced anesthesia on the day of dosing initiation (SD 1) and used as control group.
2. Treatments To evaluate the antiandrogenic activity, tested compounds were applied topically on the inner part of the left ear, once daily, for 14 days. Ten μL solution of acetone: ethanol: propylene Glycol (1:1:2; v:v:v) containing 0.1, 0.3 or 1.0 mg/mL of tested compound was carefully applied onto a region between the two cartilage ridges of the ventral surface of left pinna. For animals in the castrated and intact control groups ten-μL vehicle was applied onto the left ear. No solution will be applied on the right ear for any animals of the study.
3. Postmortem Observations and Measurements On Study Day 15, the hamsters were euthanized by cervical dislocation under isoflurane anesthesia. The left and right ears were collected attached together by the head skin, flat fixed on a paper and were immersed in 10% neutral buffered formalin. From the flat fixed ear and using paper puncture that makes a hole of 6 mm, the region where solution was applied was collected from each ear. Using a scalpel blade, the collected 6 mm round ear specimen was cut in the middle between the two cartilage ridges. The two equal parts of the ear round specimen were embedded in paraffin. After processing the tissue, the two parts were vertically embedded parallel to each other in a way that the flat 6 mm area was facing out. From each paraffin block, one section (5 μm thick) was cut and collected on a glass slide. Thus, each slide contained two elongated sections of 6 mm length. Slides were stained with hematoxylin and eosin.
4. Analysis of Sebaceous Gland Area Using the video camera and objective lens number X5 of the light microscope, the resulting field that appears on the screen has a length of 0.953 mm. From the glass slide, when we have examined the first 6 mm long section from the left to the right, the first and second fields were ignored and the third and fourth fields were captured for analysis by the image analyzer. Each field has the length of 0.953 mm. With the help of the screen mouse, the sebaceous glands within the whole field length (0.953mm) were marked. Also, an area with the length of the whole field and the height between stratum granulosum and the upper edge of the cartilage was drawn.
The image analyzer calculated the total area of the sebaceous glands (μm^2) in each examined field. We also obtained the area, which has the length of 0.953 mm and the height between stratum granulosum and the cartilage. In addition, the percentage of the area occupied by the glands was obtained. Thus, for each ear, two sections were cut and two fields from each section were analyzed. The total of the four readings was averaged and the mean standard of error calculated by the image analyzer. The results were expressed in μm^2 as the total surface of glands per field and also as percentage of the area occupied by the glands.

[4] = tested on: Shionogi mouse mammary carcinoma cells; test: In vitro androgenic/antiandrogenic activity, DHT-stimulated Shionogi cell number; type: cell-based; conditions: for Shionogis (In Vitro) VS OH-FLU (ratio of Ki of hydroxyflutamide versus tested compound): OH-Flu = 1, DHT-stimulated cell number, higher values preferable
[5] = Mus musculus, read-out: Shionogis (In Vitro) IC50(nM), inhibition of DHT-stimulated cell number, 10-12 days

Compound | inhibition in vivo at 0.5 mg [1] [%] | inhibition in vivo at 0.5 mg [2] [%] | inhibition in vivo at 0.001 mg [3] [%] | inhibition in vivo at 0.003 mg [3] [%] | inhibition in vivo at 0.01 mg [3] [%] | IC50 [4, 5] [nM] | Shionogis (In Vitro) VS OH-FLU (ratio of Ki of hydroxyflutamide versus tested compound) [4] | IC50 ([4]; read-out: Shionogis (In Vitro) IC50, inhibition of DHT-stimulated cell number, 10-12 days) [nM] | IC50 ([4]; Mus musculus, inhibition of DHT-stimulated cell number, 10-12 days, read-out: Shionogis (In Vitro) IC50) [nM] | IC50 ([4]; inhibition of DHT-stimulated cell number, 10-12 days, read-out: Shionogis (In Vitro) IC50) [nM]
CCC=C[C@]1(O)CCC2C3CCc4c(C#N)cccc4C3CC[C@@]21C (stereo partly drawn) [EM-3144] | 12 | 8 | 9.5 | 71.4 | 71.4 | 4.4 | 8.5 | – | – | –
CCCC#C[C@@H]1CC2C3CCc4c(C#N)cccc4C3CC[C@]2(C)[C@H]1O (stereo partly drawn) [EM-3165] | 14 | 1 | 19 | 14.3 | 23.8 | 15.1 | 7.2 | – | – | –
CC(=O)O[C@H]1C(C)(C)CC2C3CCc4c(C#N)cccc4C3CC[C@@]21C (stereo partly drawn) [EM-3178] | 0 | 0 | 9.5 | 9.5 | 38.1 | 17 | 4.1 | – | – | –
CC[C@]1(C)CC2C3CCc4c(C#N)cccc4C3CC[C@]2(C)C1=O (stereo partly drawn) [EM-3217] | – | – | 4.8 | 0 | 42.8 | – | ˜1 | – | – | –
CC[C@@H]1CC2C3CCc4c(C#N)cccc4C3CC[C@]2(C)[C@H]1O (stereo partly drawn) [EM-3852] | 0 | 0 | – | 66.6 | 70.4 | 16.1 | 8.7 | – | – | –
CC#Cc1ccc2c(c1C#N)CCC1C2CC[C@]2(C)C(=O)CCC12 (stereo partly drawn) [EM-4142] | 22 | 0 | 18.5 | 18.5 | 37 | 29 | 3.7 | – | – | –
CC1(C)C[C@H]2[C@@H]3CCc4cc(F)ccc4[C@H]3CC[C@]2(C)[C@H]1O [EM-3497, 3fluoro-16,16-dimethyl-1,3,5(10)-estratrien-17β-ol] | 0 | 0 | 62.9 | 62.9 | 77.7 | 46 | 1.5 | – | – | –
CC1(C)CC2C3CCc4c(C#N)cccc4C3CC[C@]2(C)[C@H]1O (stereo partly drawn) [EM-2557] | 0 | 6 | 52.4 | 42.8 | 66.6 | 15 | – | 18 | – | –
CC(C)C#C[C@]1(O)CCC2C3CCc4c(C#N)cccc4C3CC[C@@]21C (stereo partly drawn) [EM-3166] | 15 | 0 | 47.6 | 66.6 | 76.2 | 21.8 | 5.0 | – | – | –
C[C@]12CCC3c4cccc(C#N)c4CCC3C1C[C@@H](C#CC1CC1)[C@@H]2O (stereo partly drawn) [EM-3473] | 0 | 0 | 7.4 | 0 | 14.8 | 9.3 | 9 | – | – | –
CC[C@@]1(C)C[C@H]2[C@@H]3CCc4c(C#N)cccc4[C@H]3CC[C@]2(C)[C@H]1O [EM-3221, 4cyano-16α-methyl-16β-ethyl-1,3,5(10)-estratrien-17β-ol] | 1 | 0 | 0 | 9.5 | 33.3 | 3.2 | 6.6 | – | – | –
CC[C@@]1(C)C[C@H]2[C@@H]3CCc4c(C#N)cccc4[C@H]3CC[C@]2(C)C1=O [EM-3180, 4-cyano-16α-methyl-16β-ethyl-1,3,5(10)-estratrien-17-one] | 0 | 0 | 57.1 | 90.5 | 95.2 | 35 | 2 | – | – | –
C[C@@H]1CCC2C3CCc4c(C#N)cccc4C3CC[C@]2(C)[C@H]1O (stereo partly drawn) [EM-3803] | 30 | 0 | 33.3 | 51.8 | 37 | – | – | – | 11 | 8.6
CC#C[C@@H]1CC2C3CCc4c(C#N)cccc4C3CC[C@]2(C)[C@H]1O (stereo partly drawn) [EM-2627] | 25 | 0 | 14.3 | 42.8 | 66.6 | 7.8 | 8.3 | – | – | –
C[C@@H]1CC2C3CCc4c(C#N)cccc4C3CC[C@]2(C)C1=O (stereo partly drawn) [EM-3223] | 18 | 0 | 25.9 | 37 | 59.2 | – | – | – | – | –
